Among the data in US12612412B2, “Antiviral heterocyclic compounds” (Enanta Pharmaceuticals, Inc., priority 2021, dated 2026) are EC50 values, retold here.

Experiment [1] relates to HMPV clinical isolate TN/1501/A1. The experiment in a line: HMPV antiviral assay Method-B (clinical isolate TN/1501/A1 in LLC-MK2 cells, ATP-Lite readout). The experiment is classed as cell-based, Human metapneumovirus (HMPV). The settings on record: human metapneumovirus, LLC-MK2, 144 h, hMPV WT1501 (clinical isolate TN/1501/A1), 6 days. In short, it runs like this:
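LLC-MK2 cells infected in suspension with TN/1501/A1 at MOI 0.014 in serum-free medium with 2 μg/mL TPCK-trypsin (final), incubated 6 days at 37° C. Compounds tested in duplicate, 10-point 3-fold dilutions from 10 μM. Cell health read by ATP-Lite luminescence, normalised to virus-only and cells-only controls; EC50 by four-parameter logistic fit.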

The test system of experiment [2] is genotype A, "Long" strain RSV. Briefly: RSV-A assay (CPE protection in Hep-2 cells, ATPlite readout). The note with it: human respiratory syncytial virus, RSV-A Long strain, MOI 0.1, CPE protection, read-out: Human RSV-A (“Long”) EC50. In kind it is cell-based, Human respiratory syncytial virus (HRSV). In short, it runs like this:
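Hep-2 cells (8,000/well) were treated with 2-fold serial compound dilutions in duplicate and infected with RSV at MOI 0.1. After 5 days, protection from cytopathic effect was measured as cell viability by ATPlite luminescence, and EC50 values were derived.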

Usually EC50 stands for the concentration that produces a half-maximal response. Take `C[C@]1(C(N)=O)COc2c1cc([C@@](O)(CNC(=O)c1cc(F)c3nn(C4(F)CC4)cc3c1)C1CC1)nc2-c1ccc2c(c1)OC(F)(F)O2` [Example 848]: the EC50 in experiment [1] is less than 0.5 µM; in experiment [2] it was less than 0.2 µM.

Turning to `C[C@]1(C(N)=O)COc2c1cc([C@@](O)(CNC(=O)c1cc(Cl)c3nn(C4(F)CC4)cc3c1)C1CC1)nc2-c1ccc2c(c1)OC(F)(F)O2` [Example 849], the figures for the EC50 in experiment [1] and in experiment [2] were less than 0.5 µM and less than 0.2 µM, respectively.

Regarding `COc1cc(C(=O)NC[C@](O)(c2nc(-c3ccc(F)cc3)c3c(c2F)[C@](C)(C(N)=O)CO3)C(F)(F)F)cc2cn(C3CC3)nc12` [Example 850], the EC50 in experiment [1] is more than 0.5 µM; in experiment [2], less than 0.2 µM.

On to `COc1cc(C(=O)NC[C@](O)(c2nc(-c3ccc(F)cc3)c3c(c2F)[C@@](C)(C(N)=O)CO3)C(F)(F)F)cc2cn(C3CC3)nc12` [Example 851], for which the values for the 50% effective concentration (EC50) in experiment [1] and in experiment [2] were less than 0.5 µM and less than 0.2 µM, respectively.

Turning to `COc1cc(C(=O)NC[C@](O)(c2nc(-c3ccc(F)cc3)c3c(c2F)[C@](C)(C(N)=O)CO3)C(F)(F)F)cc2cn(C(F)F)nc12` [Example 852], the EC50 in experiment [1] is more than 0.5 µM; in experiment [2], less than 0.2 µM.

With `COc1cc(C(=O)NC[C@](O)(c2nc(-c3ccc(F)cc3)c3c(c2F)[C@@](C)(C(N)=O)CO3)C(F)(F)F)cc2cn(C(F)F)nc12` [Example 853], the half-maximal effective concentration (EC50) in experiment [1] was less than 0.5 µM; in experiment [2], less than 0.2 µM.

On to `COc1cc(C(=O)NC[C@](O)(c2nc(-c3ccc(F)cc3)c3c(c2F)[C@](C)(C(N)=O)CO3)C(F)(F)F)cc2cc(Cl)c(C)nc12` [Example 854], for which the figures for the EC50 in experiment [1] and in experiment [2] were more than 0.5 µM and more than 0.2 µM, respectively.

Turning to `COc1cc(C(=O)NC[C@](O)(c2nc(-c3ccc(F)cc3)c3c(c2F)[C@@](C)(C(N)=O)CO3)C(F)(F)F)cc2cc(Cl)c(C)nc12` [Example 855], the concentration giving a half-maximal response (EC50) in experiment [1] was less than 0.5 µM; in experiment [2], less than 0.2 µM.

For the compound `C[C@]1(C(N)=O)COc2c1cc([C@@](O)(CNC(=O)c1cc(Cl)c3nn(C(F)F)cc3c1)C1CC1)nc2-c1ccc2c(c1)OC(F)(F)O2` [Example 856], the figures for the EC50 in experiment [1] and in experiment [2] were less than 0.5 µM and less than 0.2 µM, respectively.

Regarding `COc1cc(C(=O)NC[C@](O)(c2nc(-c3ccc4c(c3)OC(F)(F)O4)c3c(c2F)[C@@](C)(C(N)=O)CO3)C2CC2)cc2cn(C3CC3)nc12` [Example 857], the EC50 is less than 0.5 µM in experiment [1] and less than 0.2 µM in experiment [2].

For `C[C@]1(C(N)=O)COc2c(-c3ccc4c(c3)OC(F)(F)O4)nc([C@@](O)(CNC(=O)c3cc(Cl)c4nn(C5CC5)cc4c3)C3CC3)c(F)c21` [Example 858], the figures for the 50% effective concentration (EC50) in experiment [1] and in experiment [2] were less than 0.5 µM and less than 0.2 µM, respectively.

For the compound `COc1cc(C(=O)NC[C@](O)(c2nc(-c3ccc4c(c3)OC(F)(F)O4)c3c(c2F)[C@@](C)(C(N)=O)CO3)C2CC2)cc2cn(C3(F)CC3)nc12` [Example 859], the EC50 was less than 0.5 µM in experiment [1] and less than 0.2 µM in experiment [2].

On to `COc1cc(C(=O)NC[C@](O)(c2nc(-c3ccc4c(c3)OC(F)(F)O4)c3c(c2F)[C@@](C)(C(N)=O)CO3)C2CC2)cc2cn(C(F)F)nc12` [Example 860], for which the EC50 in experiment [1] is less than 0.5 µM; in experiment [2], less than 0.2 µM.

For `COc1cc(C(=O)NC[C@](O)(c2nc(-c3ccc4c(c3)OC(F)(F)O4)c3c(c2F)[C@@](C)(C(N)=O)CO3)C2CC2)cc2cc(Cl)c(C)nc12` [Example 861], the EC50 is less than 0.5 µM in experiment [1] and less than 0.2 µM in experiment [2].

As for `COc1cc(C(=O)NC[C@](O)(c2nc(-c3cc(Cl)c(F)cc3F)c3c(c2F)[C@@](C)(C(N)=O)CO3)C2CC2)cc2cn(C3CC3)nc12` [Example 862], the EC50 in experiment [1] was less than 0.5 µM; in experiment [2] it was less than 0.2 µM.

For the compound `COc1cc(C(=O)NC[C@](O)(c2cc3c(c(-c4ccc(F)c(C(F)(F)F)c4)n2)OC[C@]3(C)C(N)=O)C2CC2)cc2cn(C3CC3)nc12` [Example 871], the EC50 in experiment [1] is less than 0.5 µM; in experiment [2], less than 0.2 µM.

For `COc1cc(C(=O)NC[C@](O)(c2cc3c(c(-c4ccc(F)cc4Cl)n2)OC[C@]3(C)C(N)=O)C2CC2)cc2cn(C3CC3)nc12` [Example 872], the 50% effective concentration (EC50) in experiment [1] was less than 0.5 µM; in experiment [2], less than 0.2 µM.

For the compound `COc1cc(C(=O)NC[C@](O)(c2cc3c(c(-c4ccc(Cl)cc4F)n2)OC[C@]3(C)C(N)=O)C2CC2)cc2cn(C3CC3)nc12` [Example 873], the values for the EC50 in experiment [1] and in experiment [2] were less than 0.5 µM and less than 0.2 µM, respectively.

Regarding `COc1cc(C(=O)NC[C@](O)(c2cc3c(c(-c4ccc(F)cc4)n2)OC[C@]3(C)C(N)=O)C(F)(F)F)cc2nn(C3CC3)cc12` [Example 874], the 50% effective concentration (EC50) was more than 0.5 µM in experiment [1] and more than 0.2 µM in experiment [2].

Regarding `COc1cc(C(=O)NC[C@](O)(c2cc3c(c(-c4ccc(F)cc4)n2)OC[C@]3(C)C(N)=O)C(F)(F)F)cc2c(=O)n(C3CC3)[nH]c12` [Example 876], the EC50 in experiment [1] is more than 0.5 µM; in experiment [2] it was more than 0.2 µM.

Take `C[C@]1(C(N)=O)COc2c1cc([C@@](O)(CNC(=O)c1cc(OCC3CC3)c3nn(C4(F)CC4)cc3c1)C(F)(F)F)nc2-c1ccc(F)cc1` [Example 877]: the results for the EC50 in experiment [1] and in experiment [2] were less than 0.5 µM and less than 0.2 µM, respectively.

For the compound `C[C@]1(C(N)=O)COc2c1cc([C@@](O)(CNC(=O)c1cc(OCCF)c3nn(C4(F)CC4)cc3c1)C(F)(F)F)nc2-c1ccc(F)cc1` [Example 878], the concentration giving a half-maximal response (EC50) in experiment [1] is more than 0.5 µM; in experiment [2] it was less than 0.2 µM.

As to `Cc1nc2c(Cl)cc(C(=O)NC[C@](O)(c3cc4c(c(-c5ccc(F)cc5)n3)OC[C@]4(C)C(N)=O)C(F)(F)F)cc2cc1Cl` [Example 883], the figures for the EC50 in experiment [1] and in experiment [2] were more than 0.5 µM and less than 0.2 µM, respectively.

`Cc1nc2c(Cl)cc(C(=O)NC[C@](O)(c3cc4c(c(-c5ccc(F)c(Cl)c5)n3)OC[C@]4(C)C(N)=O)C(F)(F)F)cc2cc1Cl` [Example 884]: the results for the 50% effective concentration (EC50) in experiment [1] and in experiment [2] were more than 0.5 µM and less than 0.2 µM, respectively.

For the compound `Cc1nc2c(OC3CC3)cc(C(=O)NC[C@](O)(c3cc4c(c(-c5ccc(F)cc5)n3)OC[C@]4(C)C(N)=O)C(F)(F)F)cc2cc1Cl` [Example 885], the figures for the EC50 in experiment [1] and in experiment [2] were less than 0.5 µM and less than 0.2 µM, respectively.

As for `Cc1nc2c(OC3CC3)cc(C(=O)NC[C@](O)(c3cc4c(c(-c5ccc(F)c(Cl)c5)n3)OC[C@]4(C)C(N)=O)C(F)(F)F)cc2cc1Cl` [Example 886], the EC50 in experiment [1] was less than 0.5 µM; in experiment [2] it was less than 0.2 µM.

For `Cc1onc2ccc(C(=O)NC[C@](O)(c3cc4c(c(-c5ccc(F)cc5)n3)OC[C@]4(C)C(N)=O)C(F)(F)F)cc12` [Example 887], the EC50 is more than 0.5 µM in experiment [1] and less than 0.2 µM in experiment [2].

`COc1cc(C(=O)NC[C@](O)(c2cc3c(c(-c4ccc(F)cc4)n2)OC[C@]3(C)C(N)=O)C(F)(F)F)cc2c(C)onc12` [Example 888]: the figures for the EC50 in experiment [1] and in experiment [2] were more than 0.5 µM and less than 0.2 µM, respectively.

As for `C[C@]1(C(N)=O)COc2c1cc([C@@](O)(CNC(=O)c1cc(OCC(F)F)c3nn(C4(F)CC4)cc3c1)C(F)(F)F)nc2-c1ccc(F)cc1` [Example 889], the results for the concentration giving a half-maximal response (EC50) in experiment [1] and in experiment [2] were more than 0.5 µM and less than 0.2 µM, respectively.

Consider `COc1cc(C(=O)NC[C@](O)(c2cc3c(c(-c4ccc(C5CC5)cc4)n2)OC[C@]3(C)C(N)=O)C(F)(F)F)cc2cn(C3CC3)nc12` [Example 891], for which the EC50 in experiment [1] is more than 0.5 µM; in experiment [2], less than 0.2 µM.

With `COc1cc(C(=O)NC[C@](O)(c2cc3c(c(-c4ccc5c(c4)OC(F)(F)O5)n2)OC[C@]3(C)C(N)=O)C(F)(F)F)cc2cn(C3CC3)nc12` [Example 893], the results for the EC50 in experiment [1] and in experiment [2] were less than 0.5 µM and less than 0.2 µM, respectively.

On to `COc1cc(C(=O)NC[C@](O)(c2cc3c(c(-c4ccc(C(F)F)cc4)n2)OC[C@]3(C)C(N)=O)C(F)(F)F)cc2cn(C3CC3)nc12` [Example 896], for which the EC50 in experiment [1] is more than 0.5 µM; in experiment [2] it was less than 0.2 µM.

On to `COc1cc(C(=O)NC[C@](O)(c2cc3c(c(-c4ccc(OC(F)(F)F)cc4)n2)OC[C@]3(C)C(N)=O)C(F)(F)F)cc2cn(C3CC3)nc12` [Example 898], for which the EC50 in experiment [1] was more than 0.5 µM; in experiment [2], less than 0.2 µM.

For the compound `COc1cc(C(=O)NCC(O)(c2cc3c(c(-c4cnc(C(F)(F)F)nc4)n2)OC[C@]3(C)C(N)=O)C(F)(F)F)cc2cn(C3CC3)nc12` (some centres unmarked) [Example 899], the EC50 in experiment [1] is more than 0.5 µM; in experiment [2], more than 0.2 µM.

For `COc1cc(C(=O)NC[C@](O)(c2cc3c(c(-c4ccc(F)cc4F)n2)OC[C@]3(C)C(N)=O)C(F)(F)F)cc2cn(C3CC3)nc12` [Example 901], the 50% effective concentration (EC50) in experiment [1] is less than 0.5 µM; in experiment [2], less than 0.2 µM.

With `COc1cc(C(=O)NCC(O)(c2cc3c(c(-c4cnn(C)c4)n2)OC[C@]3(C)C(N)=O)C(F)(F)F)cc2cn(C3CC3)nc12` (some centres unmarked) [Example 903], the figures for the EC50 in experiment [1] and in experiment [2] were more than 0.5 µM and less than 0.2 µM, respectively.

For the compound `COc1cc(C(=O)NC[C@](O)(c2cc3c(c(-c4ccc5c(c4)OCO5)n2)OC[C@]3(C)C(N)=O)C(F)(F)F)cc2cn(C3CC3)nc12` [Example 908], the EC50 in experiment [1] is less than 0.5 µM; in experiment [2] it was less than 0.2 µM.

For the compound `COc1cc(C(=O)NCC(O)(c2cc3c(c(-c4ccc(F)c(OC(F)F)c4)n2)OC[C@]3(C)C(N)=O)C(F)(F)F)cc2cn(C3CC3)nc12` (some centres unmarked) [Example 909], the EC50 in experiment [1] was more than 0.5 µM; in experiment [2] it was less than 0.2 µM.

On to `COc1cc(C(=O)NC[C@](O)(c2cc3c(c(-c4ccccc4F)n2)OC[C@]3(C)C(N)=O)C(F)(F)F)cc2cn(C3CC3)nc12` [Example 911], for which the EC50 in experiment [1] was less than 0.5 µM; in experiment [2], less than 0.2 µM.

With `COc1cc(C(=O)NC[C@](O)(c2cc3c(c(-c4cccc(F)c4)n2)OC[C@]3(C)C(N)=O)C(F)(F)F)cc2cn(C3CC3)nc12` [Example 912], the 50% effective concentration (EC50) in experiment [1] was less than 0.5 µM; in experiment [2], less than 0.2 µM.
